Data from patent US7112565B2, “Stabilized pharmaceutical composition in lyophilized form” (Astellas Pharma Inc., priority 1999, dated 2006).

Assays:
Type in all cases: physicochemical
[1] = Test Example 2: stability with maltose, sucrose or glucose as stabilizer
Method: (§1) 10 mg of Compound (II) and, as a stabilizer, 100 mg of lactose or 9 mg of sodium chloride were dissolved completely in 1 ml of water. The resulting solutions were lyophilized and maintained at 70° C. in glass vials. Nine days after, the resulting compositions were tested on their appearance, the residual amount of Compound (II), and others. As a control, used was a solution of Compound (II) without any stabilizers.
The similar tests were conducted in the same manner as in Test Example 1 except that 100 mg of maltose, 50 mg of sucrose or 50 mg of glucose was used as a stabilizer.

[2] = Test Example 1: effect of stabilizer on stability of lyophilized compositions of Compound (II)
Method: Effect of Stabilizer in Stabilizing Lyophilized Compositions of Compound (II)
as §1

[3] = Test Example 3: dependence of stability on the amount of lactose added; settings: 10 mg Compound (II) + 20 mg lactose
Method: as §1
Dependence of the Stability of Lyophilized Compositions of Compound (II) upon the Amount of Lactose Added
Tests were carried out in the same manner as in Test example 1 except that 20 mg, 50 mg, 100 mg or 200 mg of lactose were added as a stabilizer. […] Incidentally, it took 15 seconds to reconstitute the compositions in 1 ml of water.

[4] = 10 mg Compound (II) + glucose (50 mg), 0 hours
[5] = 10 mg Compound (II) + glucose (50 mg), after 9 days at 70° C.
[6] = 10 mg Compound (II) + maltose (100 mg), 0 hours
[7] = 10 mg Compound (II) + maltose (100 mg), after 9 days at 70° C.
[8] = 10 mg Compound (II) + sucrose (50 mg), 0 hours
[9] = 10 mg Compound (II) + sucrose (50 mg), after 9 days at 70° C.
[10] = 10 mg Compound (II), control: nil stabilizer, 0 hours
[11] = 10 mg Compound (II), control: nil stabilizer, after 9 days at 70° C.
[12] = 10 mg Compound (II) + lactose (100 mg), 0 hours
[13] = 10 mg Compound (II) + lactose (100 mg), after 9 days at 70° C.
[14] = 10 mg Compound (II) + sodium chloride (9 mg), 0 hours
[15] = 10 mg Compound (II) + sodium chloride (9 mg), after 9 days at 70° C.
[16] = after 3 months at 40° C. and 75% humidity

**Q.** Which Appearance [1, 4] does the source give for `CCCCCOc1ccc(-c2cc(-c3ccc(C(=O)NC4CC(O)C(O)NC(=O)C5C(O)C(C)CN5C(=O)C(C(O)CC(N)=O)NC(=O)C(C(O)C(O)c5ccc(O)c(OS(=O)(=O)[O-])c5)NC(=O)C5CC(O)CN5C(=O)C(C(C)O)NC4=O)cc3)no2)cc1.[Na+]` (centres unmarked) [Compound (II)] here?
**A.** Its Appearance is “White melt”.

**Q.** And the Residual amount [1, 4]?
**A.** The Residual amount was 100%.

**Q.** What about the Water content [1, 4] of the same molecule?
**A.** Its Water content is 4.3%.

**Q.** What about the “pH of reconstituted solution in 1 ml of water” value (“pH of reconstituted solution” for short) [1, 4] of the same molecule?
**A.** Its value is 6.9.

**Q.** What about the Appearance [1, 5] of the same molecule?
**A.** The Appearance was “Brown melt”.

**Q.** What about the Residual amount [1, 5] of the same molecule?
**A.** Its Residual amount is 1.1%.

**Q.** What about the “pH of reconstituted solution” value [1, 5] of the same molecule?
**A.** The value was 3.6.

**Q.** What about the Appearance [1, 6] of the same molecule?
**A.** Its Appearance is “White mass”.

**Q.** And the Residual amount [1, 6]?
**A.** The Residual amount was 100.0%.

**Q.** And the Water content [1, 6]?
**A.** Its Water content is 0.9%.

**Q.** What about the “pH of reconstituted solution” value [1, 6] of the same molecule?
**A.** The value was 7.3.

**Q.** And the Appearance [1, 7]?
**A.** Its Appearance is “White mass”.

**Q.** And the Residual amount [1, 7]?
**A.** Its Residual amount is 98.6%.

**Q.** What about the “pH of reconstituted solution” value [1, 7] of the same molecule?
**A.** The value was 6.7.

**Q.** And the Appearance [1, 8]?
**A.** The Appearance was “White mass”.

**Q.** And the Residual amount [1, 8]?
**A.** Its Residual amount is 100.0%.

**Q.** And the Water content [1, 8]?
**A.** The Water content was 1.1%.

**Q.** What about the “pH of reconstituted solution” value [1, 8] of the same molecule?
**A.** The value was 6.9.

**Q.** What about the Appearance [1, 9] of the same molecule?
**A.** Its Appearance is “White melt”.

**Q.** And the Residual amount [1, 9]?
**A.** The Residual amount was 82.4%.

**Q.** And the “pH of reconstituted solution” value [1, 9]?
**A.** Its value is 7.0.

**Q.** And the Appearance [1, 10]?
**A.** Its Appearance is “White mass”.

**Q.** What about the Residual amount [1, 10] of the same molecule?
**A.** Its Residual amount is 100.0%.

**Q.** What about the Water content [1, 10] of the same molecule?
**A.** Its Water content is 3.3%.

**Q.** And the “pH of reconstituted solution” value [1, 10]?
**A.** The value was 6.8.

**Q.** And the Appearance [1, 11]?
**A.** The Appearance was “White mass”.

**Q.** And the Residual amount [1, 11]?
**A.** The Residual amount was <75.0%.

**Q.** And the “pH of reconstituted solution” value [1, 11]?
**A.** Its value is 5.4.

**Q.** And the Appearance [2, 12]?
**A.** Its Appearance is “White mass”.

**Q.** And the Residual amount [2, 12]?
**A.** The Residual amount was 100.0%.

**Q.** What about the Water content [2, 12] of the same molecule?
**A.** The Water content was 1.0%.

**Q.** What about the “pH of reconstituted solution” value [2, 12] of the same molecule?
**A.** Its value is 6.4.

**Q.** What about the Appearance [2, 13] of the same molecule?
**A.** Its Appearance is “White mass”.

**Q.** What about the Residual amount [2, 13] of the same molecule?
**A.** Its Residual amount is 99.5%.

**Q.** And the “pH of reconstituted solution” value [2, 13]?
**A.** Its value is 6.1.

**Q.** And the Appearance [2, 14]?
**A.** The Appearance was “White mass”.

**Q.** And the Residual amount [2, 14]?
**A.** The Residual amount was 100.0%.

**Q.** And the Water content [2, 14]?
**A.** Its Water content is 0.7%.

**Q.** What about the “pH of reconstituted solution” value [2, 14] of the same molecule?
**A.** Its value is 6.7.

**Q.** And the Appearance [2, 15]?
**A.** Its Appearance is “White mass”.

**Q.** What about the Residual amount [2, 15] of the same molecule?
**A.** The Residual amount was 75.9%.

**Q.** And the “pH of reconstituted solution” value [2, 15]?
**A.** Its value is 6.3.

**Q.** What about the Appearance [2, 10] of the same molecule?
**A.** The Appearance was “White mass”.

**Q.** And the Residual amount [2, 10]?
**A.** Its Residual amount is 100.0%.

**Q.** And the Water content [2, 10]?
**A.** The Water content was 1.3%.

**Q.** And the “pH of reconstituted solution” value [2, 10]?
**A.** The value was 7.1.

**Q.** And the Appearance [2, 11]?
**A.** The Appearance was “Slightly yellow mass”.

**Q.** And the Residual amount [2, 11]?
**A.** Its Residual amount is 8.0%.

**Q.** What about the “pH of reconstituted solution” value [2, 11] of the same molecule?
**A.** Its value is 2.7.

**Q.** And the “Stability of lyophilized composition (conclusion from Tables 1 and 2)” value ([2]; with lactose, sodium chloride, maltose or sucrose, compared with no stabilizer or other stabilizers)?
**A.** The value was “significantly stable”.

**Q.** And the “Clarity of reconstituted solution in 1 ml of water” value (“Clarity of reconstituted solution” for short) ([3]; 0 hours)?
**A.** The value was “Clear”.

**Q.** And the “Color of reconstituted solution in 1 ml of water” value ([3]; 0 hours)?
**A.** Its value is “Colorless”.

**Q.** What about the Residual amount ([3]; 0 hours) of the same molecule?
**A.** The Residual amount was 100.0%.

**Q.** And the Total impurities ([3]; 0 hours)?
**A.** Its Total impurities is 3.44%.

**Q.** What about the Water content ([3]; 0 hours) of the same molecule?
**A.** Its Water content is 1.2%.

**Q.** What about the “pH of reconstituted solution” value ([3]; 0 hours) of the same molecule?
**A.** The value was 6.09.

**Q.** What about the “Clarity of reconstituted solution” value [3, 16] of the same molecule?
**A.** Its value is “Clear”.

**Q.** And the “Color of reconstituted solution in 1 ml of water” value [3, 16]?
**A.** The value was “Colorless”.

**Q.** And the Residual amount [3, 16]?
**A.** Its Residual amount is 100.0%.

**Q.** What about the Total impurities [3, 16] of the same molecule?
**A.** Its Total impurities is 3.99%.

**Q.** What about the “pH of reconstituted solution” value [3, 16] of the same molecule?
**A.** Its value is 6.57.

**Q.** What about the “Clarity of reconstituted solution” value ([3]; after 9 days at 70° C.) of the same molecule?
**A.** The value was “Not clear”.
